How the values were obtained:
[1] = test system: Rosacea patients with moderate to severe persistent facial erythema; assay: Erythema study, Clinician Erythema Assessment (CEA) in rosacea patients; assay type: in vivo, human
Description: Rosacea patients with moderate to severe persistent facial erythema are selected for treatment. The erythema is graded according to the Clinician Erythema Assessment (CEA) scale with photonumeric guide. It has a five-point scale: 0: clear skin with no signs of erythema; 1: almost clear, slight redness; 2: mild erythema, definite redness; 3: moderate erythema, marked redness; 4: severe erythema, fiery redness. Patients with CEA […] are enrolled in the study.
The study is double-masked. There are 5 treatment groups for 5 cream formulations (vehicle, 0.2% nintedanib, 0.3% brimonidine, combo-1 [0.2% nintedanib and 0.3% brimonidine], and combo-2 [0.1% nintedanib and 0.15% brimonidine]) to be tested and each group will have about 20 patients. The patients are assigned to the groups in a way to make sure the base line average grade is similar among the groups. The formulations are dosed once daily for 4 weeks and the patients are further followed up for 8 weeks. The drug is administered by a physician on the first day of visit and then self-administered by the patient for the remaining 4 weeks. Patients are evaluated on day 1, week 2 and 4 during dosing. After the stop of dosing, patients are further followed up at week 8 and 12.
The effect on erythema is evaluated by taking pictures of the face. […] The tolerability of the formulations is also evaluated by assessing treatment related adverse events. The efficacy and tolerability data are analyzed by independent statisticians.

[2] = test system: pterygium patients (pterygium vascularity); assay: Phase 2a clinical trial of nintedanib eye drop in pterygium patients; assay type: in vivo, human
Procedure: Nintedanib was formulated into an eye drop and tested in pterygium patients in a Phase 2a clinical trial to evaluate the safety and efficacy of nintedanib. The key efficacy endpoint is effects on pterygium vascularity.
The clinic trial was conducted in two stages. In stage 1, the safety, tolerability and pharmacokinetics were evaluated in a single dose escalating study. Three dose cohorts with 8 patients in each were evaluated. Cohort 1 began at the lowest concentration of 0.02% nintedanib (weight percent based on the total weight of the eye drop), followed by an increasing dose to 0.05% for Cohort 2 and then to 0.2% for Cohort 3.
In stage 2, the safety, tolerability and efficacy of the 0.2% formulation were evaluated in a randomized, double-masked, vehicle-controlled, parallel study with 28 days TID repeat ocular dosing of vehicle and 0.2% nintedanib. The patients were further followed up by 20 weeks of post-dosing observation. Ophthalmic and physical examinations were performed at screening, Day 1 and Week 2, 4, 8, 16, and 24. External photograph of the pterygium eye was taken using a digital camera and the pterygium vascularity was graded from these images at an independent image reading center. The primary objective is to evaluate ocular and systemic safety of nintedanib in pterygium patients that have moderate to severe pterygium vascularity. […]

[3] = day 1 after dosing, cream formulations
[4] = week 1, 2 and 4, during dosing, cream once daily

COC(=O)c1ccc2c(c1)NC(=O)/C2=C(\Nc1ccc(N(C)C(=O)CN2CCN(C)CC2)cc1)c1ccccc1 [Nintedanib, (Z)-3-(1-(4-(N-((4-methyl-piperazin-1-yl)-methylcarbonyl)-N-methyl-amino)-phenylamino)-1-phenyl-methylene]-6-methoxycarbonyl-2-indolinone]
erythema grade after stop of treatment ([1]; after stop of dosing at week 4, week 8 and 12): remains lower than the baseline
erythema grade reduction from baseline [1, 3]: does not change
erythema grade reduction from baseline [1, 4]: about 1 grade
safety and tolerability (stage 2) ([2]; 0.2% eye drop TID 28 days, 20 weeks post-dosing observation): excellent with no serious adverse events
safety, single dose escalating study (stage 1) ([2]; eye drop 0.02%, 0.05% and 0.2%, single dose, 8 patients per cohort): No safety issues

Brc1c(NC2=NCCN2)ccc2nccnc12 [brimonidine, (5-bromoquinoxalin-6-yl)-(4,5-dihydro-1H-imidazol-2-yl)-amine]
erythema grade reduction from baseline [1, 3]: about 1 grade
erythema grade reduction from baseline [1, 4]: reduction remains
erythema grade versus baseline after stop of treatment ([1]; week 8): slightly higher than baseline
erythema grade versus baseline after stop of treatment ([1]; week 12): returns to the baseline
